Laboratory results from ChEMBL document CHEMBL4507304, “Data for DCP probe TP-021” (2021).

Experiments:
[1] = biological target: Glycogen synthase kinase-3 alpha (Homo sapiens) (UniProt P49840); details: Compound concentration 1000.0 nM
[2] = biological target: Delta-type opioid receptor (Homo sapiens) (UniProt P41143); details: Compound concentration 10.0 uM
[3] = biological target: Ribosomal protein S6 kinase alpha-1 (Homo sapiens) (UniProt Q15418); details: Compound concentration 1000.0 nM
[4] = biological target: Serine/threonine-protein kinase 36 (Homo sapiens) (UniProt Q9NRP7); details: Compound concentration 1000.0 nM
[5] = biological target: Ribosomal protein S6 kinase alpha-1 (Homo sapiens) (UniProt Q15418); details: Compound concentration 1000.0 nM; remark: listed apart in the source
[6] = biological target: Ankyrin repeat and protein kinase domain-containing protein 1 (Homo sapiens) (UniProt Q8NFD2); details: Compound concentration 1000.0 nM
[7] = biological target: Vascular endothelial growth factor receptor 1 (Homo sapiens) (UniProt P17948); details: Compound concentration 1000.0 nM
[8] = system: Phosphatidylinositol 4,5-bisphosphate 3-kinase catalytic subunit alpha isoform (Homo sapiens), P42336 [C420R]; details: Compound concentration 1000.0 nM
[9] = biological target: Proto-oncogene tyrosine-protein kinase receptor Ret (Homo sapiens) (UniProt P07949); details: Compound concentration 1000.0 nM
[10] = biological target: Non-receptor tyrosine-protein kinase TYK2 (Homo sapiens) (UniProt P29597); details: Compound concentration 1000.0 nM
[11] = biological target: Ephrin type-A receptor 7 (Homo sapiens) (UniProt Q15375); details: Compound concentration 1000.0 nM
[12] = biological target: Uncharacterized serine/threonine-protein kinase SBK3 (Homo sapiens) (UniProt P0C264); details: Compound concentration 1000.0 nM
[13] = biological target: Muscarinic acetylcholine receptor M1 (Homo sapiens) (UniProt P11229); details: Compound concentration 10.0 uM
[14] = biological target: Insulin receptor (Homo sapiens) (UniProt P06213); details: Compound concentration 1000.0 nM
[15] = biological target: Tyrosine-protein kinase ITK/TSK (Homo sapiens) (UniProt Q08881); details: Compound concentration 1000.0 nM
[16] = system: Receptor-type tyrosine-protein kinase FLT3 (Homo sapiens), P36888 [UNDEFINED MUTATION]; details: Compound concentration 1000.0 nM
[17] = biological target: Bone morphogenetic protein receptor type-1A (Homo sapiens) (UniProt P36894); details: Compound concentration 1000.0 nM
[18] = biological target: Serine/threonine-protein kinase 26 (Homo sapiens) (UniProt Q9P289); details: Compound concentration 1000.0 nM
[19] = biological target: Tyrosine-protein kinase ABL1 (Homo sapiens) (UniProt P00519); details: Compound concentration 1000.0 nM
[20] = biological target: Protein kinase C eta type (Homo sapiens) (UniProt P24723); details: Compound concentration 1000.0 nM
[21] = system: Mast/stem cell growth factor receptor Kit (Homo sapiens), P10721 [D816V]; details: Compound concentration 1000.0 nM
[22] = system: Fibroblast growth factor receptor 3 (Homo sapiens), P22607 [G697C]; details: Compound concentration 1000.0 nM
[23] = biological target: Serine/threonine-protein kinase MARK1 (Homo sapiens) (UniProt Q9P0L2); details: Compound concentration 1000.0 nM
[24] = species: Rattus norvegicus; details: Compound concentration 10.0 uM
[25] = biological target: Mitogen-activated protein kinase kinase kinase 5 (Homo sapiens) (UniProt Q99683); details: Compound concentration 1000.0 nM
[26] = biological target: Phosphorylase b kinase gamma catalytic chain, skeletal muscle/heart isoform (Homo sapiens) (UniProt Q16816); details: Compound concentration 1000.0 nM
[27] = biological target: Serine/threonine-protein kinase 24 (Homo sapiens) (UniProt Q9Y6E0); details: Compound concentration 1000.0 nM
[28] = system: Receptor-type tyrosine-protein kinase FLT3 (Homo sapiens), P36888 [D835Y]; details: Compound concentration 1000.0 nM
[29] = biological target: Ephrin type-A receptor 6 (Homo sapiens) (UniProt Q9UF33); details: Compound concentration 1000.0 nM
[30] = biological target: Serine/threonine-protein kinase NIM1 (Homo sapiens) (UniProt Q8IY84); details: Compound concentration 1000.0 nM
[31] = system: Tyrosine-protein kinase ABL1 (Homo sapiens), P00519 [H396P]; details: Compound concentration 1000.0 nM
[32] = biological target: Serine/threonine-protein kinase Sgk2 (Homo sapiens) (UniProt Q9HBY8); details: Compound concentration 1000.0 nM
[33] = biological target: Serine/threonine-protein kinase PRP4 homolog (Homo sapiens) (UniProt Q13523); details: Compound concentration 1000.0 nM
[34] = system: Proto-oncogene tyrosine-protein kinase receptor Ret (Homo sapiens), P07949 [M918T]; details: Compound concentration 1000.0 nM
[35] = biological target: Epidermal growth factor receptor (Homo sapiens) (UniProt P00533); details: Compound concentration 1000.0 nM
[36] = biological target: GABA-A receptor; anion channel (Rattus norvegicus) (UniProt O09028+P15431+P18506+P18508+P19969+P20236+P23574+P23576+P28471+P28473+P30191+P62813+P63079+P63138+Q91ZM7+Q9ES14); details: Compound concentration 10.0 uM
[37] = biological target: Calcium/calmodulin-dependent protein kinase type 1D (Homo sapiens) (UniProt Q8IU85); details: Compound concentration 1000.0 nM
[38] = biological target: Serine/threonine-protein kinase N2 (Homo sapiens) (UniProt Q16513); details: Compound concentration 1000.0 nM
[39] = biological target: Ephrin type-A receptor 4 (Homo sapiens) (UniProt P54764); details: Compound concentration 1000.0 nM
[40] = system: Tyrosine-protein kinase ABL1 (Homo sapiens), P00519 [H396P]; details: Compound concentration 1000.0 nM; remark: listed apart in the source
[41] = biological target: MAP kinase-activated protein kinase 2 (Homo sapiens) (UniProt P49137); details: Compound concentration 1000.0 nM
[42] = biological target: Serine/threonine-protein kinase TAO2 (Homo sapiens) (UniProt Q9UL54); details: Compound concentration 1000.0 nM
[43] = biological target: Mitogen-activated protein kinase 15 (Homo sapiens) (UniProt Q8TD08); details: Compound concentration 1000.0 nM
[44] = biological target: Serine/threonine-protein kinase PAK 2 (Homo sapiens) (UniProt Q13177); details: Compound concentration 1000.0 nM

Ribosomal protein S6 kinase alpha-1 (Homo sapiens), sequence (Q15418 whole entry, the tested form may be a part): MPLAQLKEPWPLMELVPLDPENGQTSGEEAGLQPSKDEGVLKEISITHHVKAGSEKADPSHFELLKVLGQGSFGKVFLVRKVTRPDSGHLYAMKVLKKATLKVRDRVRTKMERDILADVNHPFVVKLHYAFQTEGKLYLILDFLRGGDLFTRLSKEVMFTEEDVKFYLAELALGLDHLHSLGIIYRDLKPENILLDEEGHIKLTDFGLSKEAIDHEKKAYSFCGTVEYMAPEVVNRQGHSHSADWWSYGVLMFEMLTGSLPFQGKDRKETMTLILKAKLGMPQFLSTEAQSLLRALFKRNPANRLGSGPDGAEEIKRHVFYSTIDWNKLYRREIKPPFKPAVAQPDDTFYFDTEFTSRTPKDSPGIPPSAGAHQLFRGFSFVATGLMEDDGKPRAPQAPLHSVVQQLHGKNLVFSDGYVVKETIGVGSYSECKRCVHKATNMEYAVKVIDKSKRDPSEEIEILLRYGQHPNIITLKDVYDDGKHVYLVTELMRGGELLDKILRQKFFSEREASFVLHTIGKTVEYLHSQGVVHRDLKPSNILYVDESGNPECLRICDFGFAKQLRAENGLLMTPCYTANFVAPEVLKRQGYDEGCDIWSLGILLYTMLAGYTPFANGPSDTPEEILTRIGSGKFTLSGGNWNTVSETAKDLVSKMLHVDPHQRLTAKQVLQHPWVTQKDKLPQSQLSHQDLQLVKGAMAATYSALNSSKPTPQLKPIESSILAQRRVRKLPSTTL
Epidermal growth factor receptor (Homo sapiens), sequence (P00533 whole entry): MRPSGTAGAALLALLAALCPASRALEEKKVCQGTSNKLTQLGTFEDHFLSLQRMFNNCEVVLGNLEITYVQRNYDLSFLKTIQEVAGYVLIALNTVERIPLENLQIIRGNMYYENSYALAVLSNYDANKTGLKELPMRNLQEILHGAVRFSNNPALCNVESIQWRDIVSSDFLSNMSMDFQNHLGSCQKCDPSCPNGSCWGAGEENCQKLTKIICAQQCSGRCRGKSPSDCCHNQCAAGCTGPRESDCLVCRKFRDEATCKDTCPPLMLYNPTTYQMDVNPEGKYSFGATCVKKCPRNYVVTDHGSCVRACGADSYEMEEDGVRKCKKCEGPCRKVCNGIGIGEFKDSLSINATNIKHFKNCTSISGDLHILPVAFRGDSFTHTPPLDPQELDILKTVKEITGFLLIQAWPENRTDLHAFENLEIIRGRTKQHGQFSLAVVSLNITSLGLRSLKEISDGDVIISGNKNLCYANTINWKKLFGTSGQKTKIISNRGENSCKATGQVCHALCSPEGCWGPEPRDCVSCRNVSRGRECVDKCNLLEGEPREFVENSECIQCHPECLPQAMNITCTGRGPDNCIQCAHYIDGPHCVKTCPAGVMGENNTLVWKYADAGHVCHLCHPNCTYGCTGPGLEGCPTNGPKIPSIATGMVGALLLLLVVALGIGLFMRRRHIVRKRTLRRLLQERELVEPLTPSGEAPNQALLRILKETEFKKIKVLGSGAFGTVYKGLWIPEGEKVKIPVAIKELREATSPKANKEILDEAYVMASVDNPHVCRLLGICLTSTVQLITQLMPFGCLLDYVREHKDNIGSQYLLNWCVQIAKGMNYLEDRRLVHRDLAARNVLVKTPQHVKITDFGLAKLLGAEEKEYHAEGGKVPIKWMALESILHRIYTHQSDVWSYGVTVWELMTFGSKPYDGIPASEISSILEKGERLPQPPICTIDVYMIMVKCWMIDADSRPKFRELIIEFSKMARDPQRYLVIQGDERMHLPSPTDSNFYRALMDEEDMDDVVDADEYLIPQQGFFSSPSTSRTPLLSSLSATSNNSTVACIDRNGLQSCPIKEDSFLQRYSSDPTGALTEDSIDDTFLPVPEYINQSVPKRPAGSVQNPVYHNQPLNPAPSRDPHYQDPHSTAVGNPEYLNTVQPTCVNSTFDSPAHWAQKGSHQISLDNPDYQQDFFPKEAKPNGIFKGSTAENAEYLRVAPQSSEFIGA
Serine/threonine-protein kinase 24 (Homo sapiens), sequence (Q9Y6E0 whole entry, looked up): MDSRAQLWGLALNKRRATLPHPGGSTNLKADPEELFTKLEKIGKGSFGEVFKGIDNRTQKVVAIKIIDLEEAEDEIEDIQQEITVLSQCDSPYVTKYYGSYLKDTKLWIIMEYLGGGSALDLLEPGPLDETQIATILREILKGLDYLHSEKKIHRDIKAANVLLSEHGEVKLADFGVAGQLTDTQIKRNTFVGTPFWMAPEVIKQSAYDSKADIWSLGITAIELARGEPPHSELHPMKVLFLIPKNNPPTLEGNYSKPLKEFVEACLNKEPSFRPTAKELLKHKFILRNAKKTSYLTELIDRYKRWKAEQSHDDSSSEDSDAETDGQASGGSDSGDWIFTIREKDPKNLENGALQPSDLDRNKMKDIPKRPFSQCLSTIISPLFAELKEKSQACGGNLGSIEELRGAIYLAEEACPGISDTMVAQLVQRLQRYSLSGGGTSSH
MAP kinase-activated protein kinase 2 (Homo sapiens), sequence (P49137 whole entry, looked up): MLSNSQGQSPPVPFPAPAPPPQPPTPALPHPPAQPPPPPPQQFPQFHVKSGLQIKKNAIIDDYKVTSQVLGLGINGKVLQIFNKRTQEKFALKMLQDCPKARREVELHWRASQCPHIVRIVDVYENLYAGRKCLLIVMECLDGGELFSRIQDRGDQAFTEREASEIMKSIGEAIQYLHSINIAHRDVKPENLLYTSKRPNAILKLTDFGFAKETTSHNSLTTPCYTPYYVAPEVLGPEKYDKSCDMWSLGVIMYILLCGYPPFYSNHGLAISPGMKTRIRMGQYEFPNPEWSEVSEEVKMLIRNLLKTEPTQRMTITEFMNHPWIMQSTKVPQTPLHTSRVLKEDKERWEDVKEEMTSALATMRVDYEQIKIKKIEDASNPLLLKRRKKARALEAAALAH
Proto-oncogene tyrosine-protein kinase receptor Ret (Homo sapiens), P07949 [M918T], sequence (P07949 whole entry M918T): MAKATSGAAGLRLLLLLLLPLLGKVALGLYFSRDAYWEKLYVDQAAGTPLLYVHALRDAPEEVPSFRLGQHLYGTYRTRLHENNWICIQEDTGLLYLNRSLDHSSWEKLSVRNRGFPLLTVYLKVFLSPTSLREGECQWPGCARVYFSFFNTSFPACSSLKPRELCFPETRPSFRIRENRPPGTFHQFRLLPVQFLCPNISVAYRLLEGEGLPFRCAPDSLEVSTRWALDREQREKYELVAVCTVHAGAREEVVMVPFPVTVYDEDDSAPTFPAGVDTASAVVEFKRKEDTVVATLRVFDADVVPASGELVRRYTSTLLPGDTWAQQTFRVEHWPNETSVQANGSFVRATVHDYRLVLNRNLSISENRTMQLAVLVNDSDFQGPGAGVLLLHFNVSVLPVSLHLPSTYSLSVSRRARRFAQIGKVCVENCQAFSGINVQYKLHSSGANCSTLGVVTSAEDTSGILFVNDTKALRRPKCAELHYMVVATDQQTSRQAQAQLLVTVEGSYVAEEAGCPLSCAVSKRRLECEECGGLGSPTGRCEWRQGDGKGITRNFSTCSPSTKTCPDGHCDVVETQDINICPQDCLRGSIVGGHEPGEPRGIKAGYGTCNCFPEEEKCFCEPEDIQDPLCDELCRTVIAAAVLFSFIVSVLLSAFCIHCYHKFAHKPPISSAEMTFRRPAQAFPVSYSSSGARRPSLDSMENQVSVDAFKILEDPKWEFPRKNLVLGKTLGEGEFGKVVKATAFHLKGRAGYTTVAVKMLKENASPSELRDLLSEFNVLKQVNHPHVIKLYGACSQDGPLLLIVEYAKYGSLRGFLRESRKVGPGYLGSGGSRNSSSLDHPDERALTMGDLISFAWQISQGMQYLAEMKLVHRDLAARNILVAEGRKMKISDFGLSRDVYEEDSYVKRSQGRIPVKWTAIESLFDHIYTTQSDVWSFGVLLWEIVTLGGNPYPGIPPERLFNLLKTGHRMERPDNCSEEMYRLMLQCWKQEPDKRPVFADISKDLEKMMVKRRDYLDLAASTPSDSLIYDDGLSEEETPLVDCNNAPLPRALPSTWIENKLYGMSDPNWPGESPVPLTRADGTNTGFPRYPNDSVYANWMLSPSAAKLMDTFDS
Mitogen-activated protein kinase 15 (Homo sapiens), sequence (Q8TD08 whole entry): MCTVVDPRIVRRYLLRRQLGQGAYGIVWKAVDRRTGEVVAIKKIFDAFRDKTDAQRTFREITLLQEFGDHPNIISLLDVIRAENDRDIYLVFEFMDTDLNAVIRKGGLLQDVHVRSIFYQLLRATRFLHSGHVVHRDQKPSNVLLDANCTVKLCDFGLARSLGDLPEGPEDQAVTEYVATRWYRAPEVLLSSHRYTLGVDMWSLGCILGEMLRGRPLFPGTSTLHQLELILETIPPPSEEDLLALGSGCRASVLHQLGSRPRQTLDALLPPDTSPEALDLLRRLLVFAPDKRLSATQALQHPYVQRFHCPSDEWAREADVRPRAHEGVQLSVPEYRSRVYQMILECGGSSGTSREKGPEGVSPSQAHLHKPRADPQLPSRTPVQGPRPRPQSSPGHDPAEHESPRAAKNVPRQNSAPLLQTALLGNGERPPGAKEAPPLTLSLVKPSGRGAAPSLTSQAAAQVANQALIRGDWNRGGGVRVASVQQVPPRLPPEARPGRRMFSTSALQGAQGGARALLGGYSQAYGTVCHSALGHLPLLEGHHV
Serine/threonine-protein kinase 26 (Homo sapiens), sequence (Q9P289 2-416 limits assumed): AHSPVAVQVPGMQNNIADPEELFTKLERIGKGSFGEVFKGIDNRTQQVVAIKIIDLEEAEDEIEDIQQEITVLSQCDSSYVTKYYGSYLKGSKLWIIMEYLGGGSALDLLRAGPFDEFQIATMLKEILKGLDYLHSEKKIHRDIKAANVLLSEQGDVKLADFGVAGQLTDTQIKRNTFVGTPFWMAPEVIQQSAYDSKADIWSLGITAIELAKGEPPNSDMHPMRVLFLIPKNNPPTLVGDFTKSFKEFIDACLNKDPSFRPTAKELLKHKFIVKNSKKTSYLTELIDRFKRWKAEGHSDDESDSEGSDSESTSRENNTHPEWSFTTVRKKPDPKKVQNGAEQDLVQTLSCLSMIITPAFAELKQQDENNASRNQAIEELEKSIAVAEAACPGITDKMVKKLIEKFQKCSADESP
Proto-oncogene tyrosine-protein kinase receptor Ret (Homo sapiens), sequence (P07949 whole entry): as the sequence (P07949 whole entry M918T) above, with T918M counted along it

N#Cc1ccc(Nc2ccc3[nH]c(=O)[nH]c3c2)c(Cl)c1
inactive: residual activity [1] 100% | inhibition [2] -0.28% | residual activity [3] 100% | residual activity [4] 100% | residual activity [5] 93% | residual activity [6] 100% | residual activity [7] 100% | residual activity [8] 90% | residual activity [9] 97% | residual activity [10] 100% | residual activity [11] 100% | residual activity [12] 96% | inhibition [13] -9.92% | residual activity [14] 95% | residual activity [15] 100% | residual activity [16] 100% | residual activity [17] 100% | residual activity [18] 96% | residual activity [19] 100% | residual activity [20] 97% | residual activity [21] 88% | residual activity [22] 93% | residual activity [23] 90% | inhibition [24] 3.22% | residual activity [25] 90% | residual activity [26] 100% | residual activity [27] 100% | residual activity [28] 94% | residual activity [29] 82% | residual activity [30] 100% | residual activity [31] 95% | residual activity [32] 65% | residual activity [33] 99% | residual activity [34] 100% | residual activity [35] 100% | inhibition [36] 10.2% | residual activity [37] 92% | residual activity [38] 76% | residual activity [39] 100% | residual activity [40] 93% | residual activity [41] 100% | residual activity [42] 100% | residual activity [43] 100% | residual activity [44] 79%

O=C1CCc2cc(Nc3cc(OC4CCOCC4)c([N+](=O)[O-])cc3Cl)ccc2N1
inactive: residual activity [1] 100% | inhibition [2] 3.32% | residual activity [3] 100% | residual activity [4] 96% | residual activity [5] 100% | residual activity [6] 82% | residual activity [7] 100% | residual activity [8] 97% | residual activity [9] 89% | residual activity [10] 100% | residual activity [11] 75% | residual activity [12] 100% | inhibition [13] -4.43% | residual activity [14] 93% | residual activity [15] 95% | residual activity [16] 100% | residual activity [17] 97% | residual activity [18] 87% | residual activity [19] 100% | residual activity [20] 86% | residual activity [21] 100% | residual activity [22] 79% | residual activity [23] 99% | inhibition [24] 13.4% | residual activity [25] 84% | residual activity [26] 100% | residual activity [27] 97% | residual activity [28] 100% | residual activity [29] 80% | residual activity [30] 100% | residual activity [31] 85% | residual activity [32] 80% | residual activity [33] 100% | residual activity [34] 94% | residual activity [35] 100% | inhibition [36] 29.2% | residual activity [37] 100% | residual activity [38] 100% | residual activity [39] 84% | residual activity [40] 89% | residual activity [41] 99% | residual activity [42] 82% | residual activity [43] 96% | residual activity [44] 96%
